Experimental data: publication PMC7961048, “Hierarchized phosphotarget binding by the seven human 14-3-3 isoforms” (Nature Communications, 2021)
Read-outs that look alike come from different tables or passages of the source. Starred links: 1 amine or outer side, 2 acyl side, 3 side chain; linkers in the order of their positions; H or OH if unused. Non-standard residues stand in square brackets, D forms with d. Residues, ends and D or L forms follow the SMILES beside them. *: point of attachment. X1 = O=C(CCCC[C@@H]1SC[C@@H]2NC(=O)N[C@@H]21)NCCCOCCOCCOCCCN*; pT = C[C@@H](OP(=O)(O)O)[C@H](N)C(=O)O; Suc = O=C(CCC(=O)[*:2])[*:1]

Columns and labels:
Assay in all cases: biochemical
Assay type in all cases: binding
14-3-3ε = molecular target: T1, 14-3-3ε (Homo sapiens, UniProt P62258)
T1 construct: Plasmids containing the cDNAs of the full-length 14-3-3 isoforms ε, γ, and ζ were received; made in house; host or cells: E. coli BL21(DE3)
T1 sequence (P62258 1-255): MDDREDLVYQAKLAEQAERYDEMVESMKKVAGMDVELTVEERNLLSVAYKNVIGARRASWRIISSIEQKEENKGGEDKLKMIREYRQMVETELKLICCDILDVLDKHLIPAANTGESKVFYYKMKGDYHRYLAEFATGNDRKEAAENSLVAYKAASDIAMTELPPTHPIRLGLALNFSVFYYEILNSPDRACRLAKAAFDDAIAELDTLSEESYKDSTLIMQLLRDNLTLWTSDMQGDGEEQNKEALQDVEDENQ

14-3-3η = molecular target: T2, 14-3-3η (Homo sapiens, UniProt Q04917)
T2 construct: cDNAs encoding other full-length 14-3-3 isoforms β, τ, η, and σ were obtained as codon-optimized; made in house; host or cells: E. coli BL21(DE3)
T2 sequence (Q04917 1-246): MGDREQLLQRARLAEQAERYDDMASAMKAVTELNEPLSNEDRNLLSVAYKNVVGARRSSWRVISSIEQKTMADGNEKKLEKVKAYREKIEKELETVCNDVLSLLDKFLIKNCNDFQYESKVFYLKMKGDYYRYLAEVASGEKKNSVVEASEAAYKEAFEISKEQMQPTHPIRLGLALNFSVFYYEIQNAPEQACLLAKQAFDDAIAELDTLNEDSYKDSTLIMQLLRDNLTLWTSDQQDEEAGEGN

14-3-3σ = molecular target: T3, 14-3-3σ (Homo sapiens, UniProt P31947)
T3 construct: cDNAs encoding other full-length 14-3-3 isoforms β, τ, η, and σ were obtained as codon-optimized; made in house; host or cells: E. coli BL21(DE3)
T3 sequence (P31947 1-248): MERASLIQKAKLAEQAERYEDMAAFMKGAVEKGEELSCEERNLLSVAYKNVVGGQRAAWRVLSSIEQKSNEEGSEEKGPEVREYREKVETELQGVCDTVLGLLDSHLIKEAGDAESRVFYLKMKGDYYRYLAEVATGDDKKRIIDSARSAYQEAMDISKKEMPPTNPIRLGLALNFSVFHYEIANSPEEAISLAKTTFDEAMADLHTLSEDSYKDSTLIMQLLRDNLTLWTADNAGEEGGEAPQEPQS

14-3-3τ = molecular target: T4, 14-3-3τ (Homo sapiens, UniProt P27348)
T4 construct: cDNAs encoding other full-length 14-3-3 isoforms β, τ, η, and σ were obtained as codon-optimized; made in house; host or cells: E. coli BL21(DE3)
T4 sequence (P27348 1-245): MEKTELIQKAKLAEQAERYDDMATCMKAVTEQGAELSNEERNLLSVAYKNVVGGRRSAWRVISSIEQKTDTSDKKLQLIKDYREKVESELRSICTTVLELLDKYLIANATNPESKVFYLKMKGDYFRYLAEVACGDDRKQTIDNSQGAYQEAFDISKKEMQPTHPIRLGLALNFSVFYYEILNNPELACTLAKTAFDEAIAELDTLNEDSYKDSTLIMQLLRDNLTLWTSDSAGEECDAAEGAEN

[1] = Figure 4 panel a, unit from the colour scale line, motifs measured in this work

`CC(C)[C@H](NC(=O)[C@H](CCC(=O)O)NC(=O)[C@@H](NC(=O)[C@H](CCC(=O)O)NC(=O)[C@H](CCCNC(=N)N)NC(=O)[C@H](CCCNC(=N)N)NC(=O)[C@@H](NC(=O)[C@@H]1CCCN1C(=O)[C@H](CCCCN)NC(=O)[C@H](CO)NC(=O)CCC(=O)NCCCOCCOCCOCCCNC(=O)CCCC[C@@H]1SC[C@@H]2NC(=O)N[C@@H]21)[C@@H](C)O)[C@@H](C)OP(=O)(O)O)C(=O)O` [pHPV35E6] ({X1-Suc}-SKPTRRE[pT]EV-OH) was tested, and the “Binding affinities (KD) of various 14-3-3-binding motifs, 14-3-3ε” value (14-3-3ε) was “√”, the Kd (14-3-3ε) was over 300 µM and the Kd (14-3-3η) was 163 ± 19 µM. For the same compound, the “Binding affinities (KD) of various 14-3-3-binding motifs, 14-3-3σ” value (“Binding affinities (KD) … 14-3-3σ” for short) (14-3-3σ) was “√”, the Kd (14-3-3σ) was over 300 µM and the Kd (14-3-3τ) was 233 ± 14 µM.

For `CC(C)[C@H](NC(=O)[C@H](CCC(=O)O)NC(=O)[C@@H](NC(=O)[C@H](CCC(=O)O)NC(=O)[C@H](CCCNC(=N)N)NC(=O)[C@H](CCCNC(=N)N)NC(=O)[C@H](CCCNC(=N)N)NC(=O)[C@@H]1CCCN1C(=O)[C@H](CCCCN)NC(=O)[C@H](CO)NC(=O)CCC(=O)NCCCOCCOCCOCCCNC(=O)CCCC[C@@H]1SC[C@@H]2NC(=O)N[C@@H]21)[C@@H](C)OP(=O)(O)O)C(=O)O` [pHPV35E6T-6R] ({X1-Suc}-SKPRRRE[pT]EV-OH), the Kd (14-3-3η) was 85 ± 20.6 µM, the Kd (14-3-3σ) was over 300 µM and the “Binding affinities (KD) … 14-3-3σ” value (14-3-3σ; [1]) was “√”. For the same compound, the Kd (14-3-3τ) was 194 ± 37 µM.

Work on `CC(C)[C@H](NC(=O)[C@H](C)NC(=O)[C@@H](NC(=O)[C@H](CCC(=O)O)NC(=O)[C@H](CCCNC(=N)N)NC(=O)[C@H](CCCNC(=N)N)NC(=O)[C@@H](NC(=O)[C@@H]1CCCN1C(=O)[C@H](CCCCN)NC(=O)[C@H](CO)NC(=O)CCC(=O)NCCCOCCOCCOCCCNC(=O)CCCC[C@@H]1SC[C@@H]2NC(=O)N[C@@H]21)[C@@H](C)O)[C@@H](C)OP(=O)(O)O)C(=O)O` [pHPV35E6E-1A] ({X1-Suc}-SKPTRRE[pT]AV-OH) yielded a Kd (14-3-3ε) of 31.9 µM, a Kd (14-3-3η) of 12.4 µM and a Kd (14-3-3σ) of 44.1 µM. It also gave a Kd (14-3-3τ) of 21.5 µM.

`CC(C)C[C@H](NC(=O)[C@H](CCCNC(=N)N)NC(=O)CCC(=O)NCCCOCCOCCOCCCNC(=O)CCCC[C@@H]1SC[C@@H]2NC(=O)N[C@@H]21)C(=O)N[C@@H](CCC(N)=O)C(=O)N[C@@H](CCCNC(=N)N)C(=O)N[C@@H](CCCNC(=N)N)C(=O)N[C@@H](CCCNC(=N)N)C(=O)N[C@@H](CCC(=O)O)C(=O)N[C@H](C(=O)N[C@@H](CCC(N)=O)C(=O)N[C@H](C(=O)O)C(C)C)[C@@H](C)OP(=O)(O)O` [pHPV18E6] was tested, and the Kd (14-3-3σ) was 139 ± 24 µM and the Kd (14-3-3τ) was 37.8 ± 6 µM.

In the case of `CC(C)C[C@H](NC(=O)[C@H](C)NC(=O)[C@@H](NC(=O)[C@H](CCC(=O)O)NC(=O)[C@H](CCCNC(=N)N)NC(=O)[C@H](CCCNC(=N)N)NC(=O)[C@H](CCCNC(=N)N)NC(=O)[C@H](CO)NC(=O)[C@H](CCCNC(=N)N)NC(=O)[C@H](CO)NC(=O)CCC(=O)NCCCOCCOCCOCCCNC(=O)CCCC[C@@H]1SC[C@@H]2NC(=O)N[C@@H]21)[C@@H](C)OP(=O)(O)O)C(=O)O` [pHPV33E6] ({X1-Suc}-SRSRRRE[pT]AL-OH), the Kd (14-3-3ε) is reported as 10.3 µM, the Kd (14-3-3η) is reported as 1.98 µM and the Kd (14-3-3σ) is reported as 6.77 µM. It also gave a Kd (14-3-3τ) of 3.52 µM.

With `CC(C)C[C@H](NC(=O)[C@H](CCC(N)=O)NC(=O)[C@@H](NC(=O)[C@H](CCC(=O)O)NC(=O)[C@H](CCCNC(=N)N)NC(=O)[C@H](CCCNC(=N)N)NC(=O)[C@@H](NC(=O)[C@H](CCCNC(=N)N)NC(=O)[C@H](CO)NC(=O)[C@H](CO)NC(=O)CCC(=O)NCCCOCCOCCOCCCNC(=O)CCCC[C@@H]1SC[C@@H]2NC(=O)N[C@@H]21)[C@@H](C)O)[C@@H](C)OP(=O)(O)O)C(=O)O` [pHPV16E6] the Kd (14-3-3ε) was over 300 µM, the “Binding affinities (KD) of various 14-3-3-binding motifs, 14-3-3ε” value (14-3-3ε; [1]) was “√” and the Kd (14-3-3σ) was over 300 µM. For the same compound, the “Binding affinities (KD) … 14-3-3σ” value (14-3-3σ; [1]) was “√”, the Kd (14-3-3τ) was 144 ± 28 µM and the “Binding affinities (KD) of various 14-3-3-binding motifs, 14-3-3τ” value (14-3-3τ; [1]) was 144 µM.
